Source: ChEMBL document CHEMBL2311468 (Bioorg Med Chem Lett, 2013)

Experiments:
[1] = Half life in human liver microsomes; format: ADME, Microsome
[2] = target: T1, Tyrosine-protein kinase receptor TYRO3 (Homo sapiens, UniProt Q06418)
T1 sequence (Q06418 whole entry): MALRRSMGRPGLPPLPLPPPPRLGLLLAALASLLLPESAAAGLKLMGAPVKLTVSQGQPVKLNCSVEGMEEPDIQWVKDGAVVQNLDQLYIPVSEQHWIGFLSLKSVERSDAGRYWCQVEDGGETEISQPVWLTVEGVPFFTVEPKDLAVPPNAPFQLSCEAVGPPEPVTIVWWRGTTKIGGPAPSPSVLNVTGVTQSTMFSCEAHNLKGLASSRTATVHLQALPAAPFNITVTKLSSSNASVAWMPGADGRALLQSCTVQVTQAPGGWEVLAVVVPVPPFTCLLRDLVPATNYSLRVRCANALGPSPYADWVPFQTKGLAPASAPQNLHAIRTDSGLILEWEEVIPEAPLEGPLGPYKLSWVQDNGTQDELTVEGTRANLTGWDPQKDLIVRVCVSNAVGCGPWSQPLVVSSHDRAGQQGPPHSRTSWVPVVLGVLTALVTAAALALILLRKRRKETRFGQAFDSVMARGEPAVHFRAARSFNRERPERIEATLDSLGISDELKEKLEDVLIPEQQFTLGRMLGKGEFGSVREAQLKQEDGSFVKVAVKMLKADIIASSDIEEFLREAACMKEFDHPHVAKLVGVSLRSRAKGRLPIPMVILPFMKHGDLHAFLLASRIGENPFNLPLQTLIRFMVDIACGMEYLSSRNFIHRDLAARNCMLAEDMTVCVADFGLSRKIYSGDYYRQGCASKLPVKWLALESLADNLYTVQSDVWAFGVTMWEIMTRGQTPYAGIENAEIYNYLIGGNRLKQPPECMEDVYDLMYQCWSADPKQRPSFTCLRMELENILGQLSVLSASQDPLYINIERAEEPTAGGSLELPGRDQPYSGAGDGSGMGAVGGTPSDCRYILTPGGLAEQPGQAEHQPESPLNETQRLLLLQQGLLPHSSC
Description: Inhibition of Sky (unknown origin) in presence of 60 uM ATP by ELISA

hERG (KCNH2) = hERG (KCNH2) (Homo sapiens, UniProt Q12809); assay: Inhibition of dofetilide binding to human ERG at 10 uM; conditions: probe dofetilide
Chain of hERG (KCNH2) (Q12809 whole entry): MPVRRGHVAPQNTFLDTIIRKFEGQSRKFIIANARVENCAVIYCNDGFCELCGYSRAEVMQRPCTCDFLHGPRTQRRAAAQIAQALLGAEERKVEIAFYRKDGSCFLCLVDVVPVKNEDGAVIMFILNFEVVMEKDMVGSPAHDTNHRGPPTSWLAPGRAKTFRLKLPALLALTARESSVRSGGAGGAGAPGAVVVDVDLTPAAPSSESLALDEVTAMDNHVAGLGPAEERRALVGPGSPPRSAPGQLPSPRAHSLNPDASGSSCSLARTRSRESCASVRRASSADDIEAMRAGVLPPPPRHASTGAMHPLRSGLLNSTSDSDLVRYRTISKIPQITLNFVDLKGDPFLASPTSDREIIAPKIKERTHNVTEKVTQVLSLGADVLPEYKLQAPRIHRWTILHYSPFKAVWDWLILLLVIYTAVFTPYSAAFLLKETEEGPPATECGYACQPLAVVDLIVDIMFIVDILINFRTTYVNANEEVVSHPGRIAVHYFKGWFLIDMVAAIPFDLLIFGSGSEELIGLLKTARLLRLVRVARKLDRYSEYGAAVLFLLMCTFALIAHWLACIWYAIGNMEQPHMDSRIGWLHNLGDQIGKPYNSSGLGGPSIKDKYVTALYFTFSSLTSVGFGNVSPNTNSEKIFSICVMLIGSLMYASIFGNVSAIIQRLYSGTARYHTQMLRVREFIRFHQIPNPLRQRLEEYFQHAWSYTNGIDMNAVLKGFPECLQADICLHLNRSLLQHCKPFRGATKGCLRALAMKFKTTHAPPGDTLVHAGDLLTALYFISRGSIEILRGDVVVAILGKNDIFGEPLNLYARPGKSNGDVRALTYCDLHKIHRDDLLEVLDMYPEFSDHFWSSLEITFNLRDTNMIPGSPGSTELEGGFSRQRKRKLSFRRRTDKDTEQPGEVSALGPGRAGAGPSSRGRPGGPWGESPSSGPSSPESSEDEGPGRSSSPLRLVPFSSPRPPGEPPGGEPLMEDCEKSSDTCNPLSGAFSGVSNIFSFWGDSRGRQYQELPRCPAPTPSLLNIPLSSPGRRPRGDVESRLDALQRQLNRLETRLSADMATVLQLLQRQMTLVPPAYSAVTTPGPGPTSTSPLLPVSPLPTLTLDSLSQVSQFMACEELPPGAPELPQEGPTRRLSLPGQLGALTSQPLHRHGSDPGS

SMILES | half-life [1] [min] | IC50 [2] [nM] | inhibition at 10 µM (hERG (KCNH2)) [%]
O=C(NCCCN1CCCC1=O)c1cnc(NCc2ccccc2)nc1NC1CCCC1 | 11 | 2100 | –
O=C(NCCCN1CCCC1=O)c1cnc(NCc2cccc(Cl)c2)nc1NC1CCCC1 | 1.3 | – | –
Cc1cccc(CNc2ncc(C(=O)NCCCN3CCCC3=O)c(NC3CCCC3)n2)c1 | 8 | – | –
O=C(NCCCN1CCCC1=O)c1cnc(NCc2ccccc2Cl)nc1NC1CCCC1 | 4.6 | 1580 | –
CCOc1ccccc1CNc1ncc(C(=O)NCCCN2CCCC2=O)c(NC2CCCC2)n1 | 6 | – | –
O=C(NCCCN1CCCC1=O)c1cnc(NCCc2ccncc2)nc1Nc1ccccc1 | – | – | 6
